Results published in US20250381165A1, “Method of Use for Benzofuran Compounds” (Tampa Bay Research Institute, Inc., priority 2024, published 2025).
In brackets after ≈: the same amount, converted by molar mass. Entries after “also recorded” stand apart in the source; their conditions may differ.

Key:
HEK293T = test: CellTiter-Glo cell viability, HEK293T; format: cell-based; details: Homo sapiens, HEK-293T
Description: (§1) BzFβ was then examined for its effect on the viability of several murine and human cell lines and primary murine splenocytes. The cytotoxicity of BzFβ was assessed using the CellTiter-Glo […] assay system according to manufacturer's instructions to determine BzFβ's effect on the viability of several murine and human cell lines and primary murine splenocytes.
(§2) DC2.4 cell line (Dr. Kenneth Rock, University of Massachusetts), RAW 264.7 cell line (American Type Culture Collection (ATCC), Manassas, VA; TIB 71), and IMG cell line (Millipore™, Merck KGaA, Burlington, MA; cat. no. SC-C134) were each cultured in complete Dulbecco's Modified Eagle Medium (cDMEM) containing […] glucose (Gibco™, Thermo Fisher Scientific Inc., Waltham, MA; cat. no. 10566-016) and supplemented with GlutaMAX, 50 U/mL penicillin and 50 µg/mL streptomycin (Gibco™; cat. no. 15070-063) and 10% heat inactivated fetal bovine serum (FBS) (R&D Systems, Inc., Minneapolis, MN; cat. no. […]
(§3) The cytotoxicity of BzFβ was assessed using the CellTiter-Glo cell […] viability assay system […] cat. no. […] CellTiter-Glo was added 1:1 in the media and the level of chemiluminescence was measured using luminescence at wavelengths of 200 nm to 700 nm through a photomultiplier on BioTek's Synergy HTX multimode microplate reader. […]

[1] = molecular target: T1, MHCI/SIINFEKL complex on DC2.4 (Mus musculus, UniProt P01901); test: Displacement of SIINFEKL from DC2.4 after peptide pulse; format: cell-based, murine; details: 25 μg/mL BzFβ after 1 h pulse 30 nM SIINFEKL; p<0.0001
T1 construct: DC2.4 are a C57Bl/6 lineage murine cell line and as such they express MHC class I H-2Kb and H-2Db; endogenous in cells; host or cells: DC2.4 (murine dendritic cell line, from Dr. Kenneth Rock)
T1 sequence (P01901 22-369): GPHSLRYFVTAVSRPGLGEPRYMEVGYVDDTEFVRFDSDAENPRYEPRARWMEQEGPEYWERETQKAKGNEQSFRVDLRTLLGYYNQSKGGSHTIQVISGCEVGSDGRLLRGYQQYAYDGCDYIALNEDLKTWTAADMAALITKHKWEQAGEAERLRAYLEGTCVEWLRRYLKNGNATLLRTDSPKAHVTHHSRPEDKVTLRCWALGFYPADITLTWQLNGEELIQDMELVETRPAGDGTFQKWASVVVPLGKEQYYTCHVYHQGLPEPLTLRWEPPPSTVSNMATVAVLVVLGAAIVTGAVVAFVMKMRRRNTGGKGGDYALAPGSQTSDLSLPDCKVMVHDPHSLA
T1 sequence (P01887 21-119 partner): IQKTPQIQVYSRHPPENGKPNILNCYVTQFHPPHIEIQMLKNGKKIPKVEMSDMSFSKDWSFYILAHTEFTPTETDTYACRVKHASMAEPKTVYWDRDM

DC2.4 = test: CellTiter-Glo cell viability, DC2.4; format: cell-based, murine; parameters: effect on cell viability: unit of the concentration uncertain
Description: as §1, §2, §3

[2] = Solubility in alkaline water; format: physicochemical; details: pH 10, aqueous buffer, read-out: limit to the solubility in alkaline water (converted)
Description: Mice were gavaged with BzFβ at doses ranging from 25 mg/kg body to 100 mg/kg body weight, injected intravenously (iv) with 50 μg BzFβ or injected intramuscularly with BzFβ at 25 to 40 mg/kg body weight. For two weeks post-treatment, water intake and weight were monitored. […] The limit to the solubility of BzFβ in alkaline water is 4 mg, therefore no further doses were tested.

H-2Db on DC2.4 = molecular target: T2, H-2Db on DC2.4 (Mus musculus, UniProt P01899); test: FITC-labeled HPV peptide RAHYNIVTF binding to DC2.4; format: cell-based, murine; details: 25 µg/mL BzFβ 4 or 24 h, 1 h pulse
T2 construct: DC2.4 are a C57Bl/6 lineage murine cell line and as such they express MHC class I H-2Kb and H-2Db; endogenous in cells; host or cells: DC2.4
Description: For peptide loading studies, cultured cells were treated for various times as indicated in results and figure legends. Cells were centrifuged and washed using cold FACS buffer (DPBS with 5% FBS, 2 mM EDTA, 0.1% sodium azide). Cells were blocked using Fc block (bioLegend™; cat. no. 101320) for 10 min to 15 min to inhibit non-specific binding, followed by staining with fluorophore-conjugated antibody PE-labeled anti-MHC I/SIINFEKL (clone 25-D1.16, Invitrogen 12-5743-82), for 30 min at 4° C. For N-terminal FITC labeled H-2Db peptide RAHYNIVTF (AnaSpec Inc., Fremont, CA; cat. no.) cells were incubated with peptide for 1-4 h before washing and analysis. After washing, the cells were subjected to flow cytometric analysis with the Attune NxT Flow Cytometer (Invitrogen™). Cells were gated based on live single-cell populations and positives were assessed using isotype controls and fluor-minus-one analysis when needed. Data were analyzed using the Attune NxT software or FlowJo versions 10.7 and 10.8.
Cells were cultured as previously described and treated for various times as indicated in results and figure legends. […] Cells were gated based on live single-cell populations and positives were assessed using isotype controls and fluor-minus-one analysis when needed. Data were analyzed using the Attune NxT software or FlowJo versions 10.7 and 10.8. […]

T2 sequence (P01899 25-362, one chain of several): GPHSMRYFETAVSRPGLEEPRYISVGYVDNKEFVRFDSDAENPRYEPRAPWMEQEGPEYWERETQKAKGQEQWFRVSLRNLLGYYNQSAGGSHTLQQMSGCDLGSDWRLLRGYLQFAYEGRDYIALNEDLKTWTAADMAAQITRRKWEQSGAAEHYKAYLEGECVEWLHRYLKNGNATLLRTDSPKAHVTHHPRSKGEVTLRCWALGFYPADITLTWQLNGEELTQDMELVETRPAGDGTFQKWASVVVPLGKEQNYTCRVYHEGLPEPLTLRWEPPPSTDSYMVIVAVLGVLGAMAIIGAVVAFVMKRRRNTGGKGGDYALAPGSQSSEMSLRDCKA

Compound: O=C(O)/C=C/c1ccc2occc2c1 [BzFβ, (2E)-3-(1-benzofuran-5-yl)prop-2-enoic acid]
- IC50 (HEK293T): 432 µM
- MHCI/SIINFEKL complex staining versus untreated cells [1]: significantly reduced
- IC50 (DC2.4; Mus musculus, DC2.4, CellTiter-Glo): 1150 µM
- effect on cell viability (DC2.4; all the cell lines examined, except HEK293T, 24 h exposure, concentrations lower than 50 µg/mL (266 (unit uncertain))): small effects on cell viability
- solubility [2]: 20 mg/mL (≈ 106 mM)
- binding of FITC labeled HPV peptide to H-2Db (H-2Db on DC2.4): enhance peptide binding on both haplotypes; also recorded: significant increase in peptide binding
